Counter-ions that a name gives are not always drawn.
How the values were obtained:
M1 receptor = target: T1, M1 receptor (Homo sapiens, UniProt P11229); assay: DMR assay, antagonism of acetylcholine in CHO-K1 cells stably transfecting the M1 receptor; format: cell-based; conditions: for IC50: DMR, acetylcholine 1 μM, 1 h pretreatment, time point 5 min
T1 construct: expressed in transfected cells; host or cells: CHO-K1
T1 sequence (P11229 1-460): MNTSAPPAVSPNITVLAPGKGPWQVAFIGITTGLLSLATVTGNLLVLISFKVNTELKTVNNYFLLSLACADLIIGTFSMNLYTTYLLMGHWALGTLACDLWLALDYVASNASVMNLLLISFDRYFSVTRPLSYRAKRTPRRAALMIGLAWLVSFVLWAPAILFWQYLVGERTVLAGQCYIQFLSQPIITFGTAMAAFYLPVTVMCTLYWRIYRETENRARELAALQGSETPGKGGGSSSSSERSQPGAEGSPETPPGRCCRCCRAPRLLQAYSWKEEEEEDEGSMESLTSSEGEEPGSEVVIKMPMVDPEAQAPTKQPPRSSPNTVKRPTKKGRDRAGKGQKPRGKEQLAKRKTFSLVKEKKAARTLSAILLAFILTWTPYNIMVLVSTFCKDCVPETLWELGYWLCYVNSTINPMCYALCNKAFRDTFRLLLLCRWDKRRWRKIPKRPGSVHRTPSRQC
Description: (§1) The present invention relates to the antagonistic activity of the compound against the muscarinic receptor, which is primarily assessed by a cell-level dynamic mass redistribution (DMR) assay method. All tests are carried out on Epic platform, wherein the target model of the muscarinic receptor M1 is the CHO-K1 ceil model stably transfecting the M1 receptor, the target model of M3 is the HT-29 cell model endogenously highly expressing the M3 receptor, and the selected probe molecule is acetylcholine. Tire probe molecule acetylcholine is dissolved in water, while all other compounds are dissolved in DMSO.
(§2) The inoculated cell plate is placed in a cell incubator for culture for 12 h until the cell growth and fusion degree reaches about 95%, and the activity assay is carried out. The culture medium is sucked from the cultured ceils, the buffer salt specified by the test is added with a volume of 30 μL per orifice and is stabilized for 1 h. After the baseline is stable, a 2-min baseline is established, and different concentrations of compounds to be tested are added to test the cultured cells for 1 h. After the cells are pretreated with the compounds to be tested for 1 h, the 2-min baseline is re-established, and acetylcholine having a concentration of 1 μM is added to test the cultured cells for 1 h.

M3 receptor = target: T2, M3 receptor (Homo sapiens, UniProt P20309); assay: DMR assay, antagonism of acetylcholine in HT-29 cells endogenously expressing the M3 receptor; format: cell-based; conditions: for IC50: DMR, acetylcholine 16 μM, 1 h pretreatment, time point 30 min
T2 construct: HT-29 cell model endogenously highly expressing the M3 receptor; endogenous in cells; host or cells: HT-29
T2 sequence (P20309 whole entry): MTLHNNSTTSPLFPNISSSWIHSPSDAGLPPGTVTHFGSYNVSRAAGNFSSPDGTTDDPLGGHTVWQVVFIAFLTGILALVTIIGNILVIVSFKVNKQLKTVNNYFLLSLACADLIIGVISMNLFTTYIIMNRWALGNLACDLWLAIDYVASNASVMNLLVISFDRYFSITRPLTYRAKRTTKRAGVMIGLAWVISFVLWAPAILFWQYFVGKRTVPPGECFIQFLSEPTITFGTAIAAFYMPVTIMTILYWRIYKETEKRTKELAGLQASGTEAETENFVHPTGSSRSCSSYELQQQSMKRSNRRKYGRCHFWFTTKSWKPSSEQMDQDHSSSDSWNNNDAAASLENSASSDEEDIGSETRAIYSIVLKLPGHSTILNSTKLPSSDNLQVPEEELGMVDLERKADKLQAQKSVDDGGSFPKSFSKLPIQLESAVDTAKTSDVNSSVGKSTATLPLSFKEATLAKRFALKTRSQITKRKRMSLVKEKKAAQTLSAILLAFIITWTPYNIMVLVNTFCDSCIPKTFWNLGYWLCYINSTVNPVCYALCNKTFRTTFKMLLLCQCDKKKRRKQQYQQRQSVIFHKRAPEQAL
Description: as §1
as §2, with “20” for “12”, “cells,” for “ceils,”, “h.” for “h. After the cells are pretreated with the compounds to be tested for 1 h, the 2-min baseline is re-established, and acetylcholine having a concentration of 1 μM is added to test the cultured cells for 1 h.”

[1] = structure-activity comparison with parent compound

Compound | IC50 (M3 receptor; HT-29 cells) [nM] | IC50 (M1 receptor; CHO-K1-M1 cells) [nM] | also measured
CCc1ccc(O)c(C(CC2CCCCN2C)c2ccccc2)c1 (stereo not drawn) |  |  | DMR response signal of the compound itself (M1 receptor; CHO-K1-M1 cells, FIG. 1): almost zero; antagonistic activity against the M1 receptor, in words (M1 receptor; [1]): the highest
2-[2-(2-hydroxy-5-fluorophenyl)-phenylethyl]-N,N-dimethylpiperidine bromide [I-10b] | 109 ± 39.4 |  | 
2-[2-(2-methyl p-toluenesulfonate group-5-methyl-phenyl)-phenethyl]-N,N-dimethylpiperidine Bromide [I-26] | 793 ± 69.7 |  | 
Cc1ccc(O)c(C(CC2CCCC[N+]2(C)CCCOc2ccccc2)c2ccccc2)c1.[Br-] (racemic) [I-4a-PrOPh, 2-[2-(2-hydroxy-5-methyl-phenyl)-phenethyl]-N-methyl, N-phenoxypropyl Piperidine Bromide] | 279 ± 128 | 295 ± 136 | antagonistic activity against the M3 receptor, in words (M3 receptor; [1]): a significant decrease in activity
CN1CCCCC1CC(c1ccccc1O)c1ccccc1O (racemic) [II-3, 2-[2,2-bis(2-hydroxy-phenyl)-ethyl]-N-methylpiperidine] | 13.1 ± 1.9 | 43.4 ± 10.6 | 
Cc1ccc(O)c(C(CC2CCCC[N+]2(C)C)c2ccccc2)c1 (single isomer, unassigned) [I-4b-Br, 2-[2-(2-hydroxy-5-methyl-phenyl)-phenethyl]-N,N-dimethylpiperidine Bromide] | 47.7 ± 11.9 | 61 ± 21.8 | 
C[N+]1(C)CCCCC1CC(c1ccccc1)c1cc(F)ccc1O (single isomer, unassigned) [I-10a, 2-[2-(2-hydroxy-5-fluorophenyl)-phenylethyl]-N,N-dimethylpiperidine bromide] |  | 13.2 ± 1.2 | 
C[N+]1(C)CCCCC1CC(c1ccccc1)c1cc(F)ccc1O (single isomer, unassigned) [I-10a-2, 2-[2-(2-hydroxy-5-fluorophenyl)-phenylethyl]-N,N-dimethylpiperidine bromide] | 82.9 ± 11.7 |  | 
C[N+]1(C)CCCCC1CC(c1ccccc1)c1cc(F)ccc1O (single isomer, unassigned) [I-10b, 2-[2-(2-hydroxy-5-fluorophenyl)-phenylethyl]-N,N-dimethylpiperidine bromide] | 12.1 ± 5.3 | 23.2 ± 12.1 | 
C[N+]1(C)CCCCC1CC(c1ccccc1)c1cc(F)ccc1O (single isomer, unassigned) [I-10b-2, 2-[2-(2-hydroxy-5-fluorophenyl)-phenylethyl]-N,N-dimethylpiperidine bromide] | 164 ± 12.6 |  | 
CN1CCCCC1CC(c1ccccc1O)c1ccccc1O (single isomer, unassigned) [II-3-1, 2-[2,2-bis(2-hydroxy-phenyl)-ethyl]-N-methylpiperidine] | 15.4 ± 2.9 | 30.4 ± 12.6 | 
CN1CCCCC1CC(c1ccccc1O)c1ccccc1O (single isomer, unassigned) [II-3-2, 2-[2,2-bis(2-hydroxy-phenyl)-ethyl]-N-methylpiperidine] | 67.3 ± 6.6 | 53.4 ± 16.2 | 
CN1CCCCC1CC(c1ccccc1)c1cc(F)ccc1O (single isomer, unassigned) [II-10a, 2-[2-(2-hydroxy-5-fluorophenyl)-phenethyl]-N-methylpiperidine] | 49.3 | 53.2 ± 12.5 | 
CN1CCCCC1CC(c1ccccc1)c1cc(F)ccc1O (single isomer, unassigned) [II-10b, 2-[2-(2-hydroxy-5-fluorophenyl)-phenethyl]-N-methylpiperidine] | 109 ± 39.4 | 83.2 ± 22.8 | 
C[N+]1(C)CCCCC1CC(c1ccccc1)c1ccccc1O (stereo not drawn) [I-2a-2-Br, 2-[2-(2-hydroxy-phenyl)-phenethyl]-N,N-dimethylpiperidine Bromide] | 28.4 ± 6.1 | 33.8 ± 8.6 | 
C[N+]1(C)CCCCC1CC(c1ccccc1)c1ccccc1O (stereo not drawn) [I-2a-I, 2-[2-(2-hydroxy-phenyl)-phenethyl]N,N-dimethylpiperidine Iodide] | 25.6 ± 1.9 | 16.5 ± 1.8 | 

Compound | IC50 (M3 receptor; HT-29 cells) [nM] | IC50 (M1 receptor; CHO-K1-M1 cells) [nM] | also measured
CN1CCCCC1CC(c1ccccc1O)c1ccccc1O (stereo not drawn) [I-3-Cl, 2-[2,2-bis(2-hydroxyphenyl)-ethyl]-N-methylpiperidine Hydrochloride] | 66.2 ± 51.8 | 402 ± 185 | 
C[N+]1(C)CCCCC1CC(c1ccccc1O)c1ccccc1O (stereo not drawn) [I-3-I, 2-[2,2-bis(2-hydroxyphenyl)ethyl]-N,N-dimethylpiperidine Iodide] | 6.9 ± 1.3 | 63.5 ± 15.1 | 
Cc1ccc(O)c(C(CC2CCCC[N+]2(C)C)c2ccccc2)c1 (stereo not drawn) [I-4B-2-Br, 2-[2-(2-hydroxy-5-methyl-phenyl)-phenethyl]-N,N-dimethylpiperidine Bromide] | 217 ± 37.9 | 157 ± 61.6 | 
Cc1ccc(O)c(C(CC2CCCC[N+]2(C)C)c2ccccc2)c1 (stereo not drawn) [I-4a-2-Br, 2-[2-(2-hydroxy-5-methyl-phenyl)-phenethyl]-N,N-dimethylpiperidine Bromide] | 1210 ± 120 | 832 ± 132 | 
Cc1ccc(O)c(C(CC2CCCC[N+]2(C)C)c2ccccc2)c1 (stereo not drawn) [I-4a-I, 2-[2-(2-hydroxy-5-methyl-phenyl)-phenethyl]-N,N-dimethylpiperidine Iodide] | 9.3 ± 1 | 13.8 ± 1.5 | 
Cc1ccc(O)c(C(CC2CCCC[N+]2(C)C)c2ccccc2)c1 (stereo not drawn) [I-4b-1-Br, 2-[2-(2-hydroxy-5-methyl-phenyl)-phenethyl]-N,N-dimethylpiperidine Bromide] | 27.1 ± 5.3 | 47.5 ± 13.5 | 
CCc1ccc(O)c(C(CC2CCCC[N+]2(C)C)c2ccccc2)c1 (stereo not drawn) [I-5-Br, 2-[2-(2-hydroxy-5-ethyl-phenyl)-phenethyl]-N,N-dimethylpiperidine Bromide] | 10.5 ± 1.1 | 45.6 ± 7.8 | 
CCc1ccc(O)c(C(CC2CCCC[N+]2(C)C)c2ccccc2)c1 (stereo not drawn) [I-5-I, 2-[2-(2-hydroxy-5-ethyl-phenyl)-phenethyl]-N,N-dimethylpiperidine Iodide] | 18.8 ± 2.3 | 20 ± 2.3 | 
CCCc1ccc(O)c(C(CC2CCCC[N+]2(C)C)c2ccccc2)c1 (stereo not drawn) [I-6, 2-[2-(2-hydroxy-5-propyl-phenyl)-phenethyl]-N,N-dimethylpiperidine Bromide] | 20.3 ± 3.6 | 133 ± 22.8 | 
C[N+]1(C)CCCCC1CC(c1ccccc1)c1ccc(F)cc1O (stereo not drawn) [I-8, 2-[2-(2-hydroxy-4-fluorophenyl)-phenethyl]-N,N-dimethylpiperidine bromide] | 97.2 ± 21.1 | 113 ± 41.2 | 
C[N+]1(C)CCCCC1CC(c1ccccc1)c1cc(F)ccc1O (stereo not drawn) [I-10b-1, 2-[2-(2-hydroxy-5-fluorophenyl)-phenylethyl]-N,N-dimethylpiperidine bromide] | 35.2 ± 6.3 |  | 
CN1CCCCC1CC(c1ccccc1)c1ccccc1O (stereo not drawn) [II-2a, 2-[2-(2-hydroxy-phenyl)phenethyl]-N-methylpiperidine] |  |  | DMR response signal of the compound itself (M3 receptor; HT-29 cells, FIG. 2): almost zero
CCCCCOc1ccc(O)c(C(CC2CCCCN2C)c2ccccc2)c1 (stereo not drawn) [II-12, 2-[2-(2-hydroxy-5-pentyloxy-phenyl)-phenethyl]-N-methylpiperidine] | 620 ± 49.4 |  | 
CN1CCCCC1CC(c1ccccc1)c1cc(C(F)(F)F)ccc1O (stereo not drawn) [II-13, 2-[2-(2-hydroxy-5-trifluoromethyl-phenyl)-phenethyl]-N-methylpiperidine] | 249 ± 9.8 |  | 
CCc1cccc(C(CC2CCCCN2C)c2cc(C(C)C)cc(C)c2O)c1 (stereo not drawn) [II-16, 2-[2-(2-hydroxy-3-methyl-5-isopropylphenyl)-2-(3-ethylphenyl)-ethyl]-N-methylpiperidine] | 371 ± 67.8 |  | 
Cc1ccc(O)c(C(CC2CCCCN2C)c2ccsc2)c1 (stereo not drawn) [II-22, 2-[2-(3-thienyl)-2-(2-hydroxy-5-methyl-phenyl)-ethyl]-N-methylpiperidine] | 20.7 ± 3.6 |  | 
